Results on 44 compounds are retold here after patent US7514452B2, “2-furancarboxylic acid hydrazides and pharmaceutical compositions containing the same” (Dainippon Pharmaceutical Co., Ltd, priority 2002, dated 2009).

Data set [1] concerns the target glucagon receptor (Rattus norvegicus, UniProt P30082). The data set is described as follows: Experiment for glucagon binding inhibition, rat hepatic membrane (125I-glucagon). The conditions noted are these: male SD rat hepatic membrane, 125I-glucagon 50 pM, 25° C. for 30 minutes; read-out: Glucagon binding inhibitory activity IC50 (nM) Rat. The method, then:
(§1) The preparation of membrane from mouse and rat livers was carried out according to the method described in Bioorg. Med. Chem. Lett. 1992, 12, 915-918 in this experiment and ^125I-glucagon binding activity was measured with these membranes as glucagon receptor's samples. Livers were removed from male SD rats (about 250 g body weight per rat) and male ddY mice (about 30 g body weight per mouse). […] The homogenate was centrifuged for 15 minutes at 30,000×g. […] The precipitaion thus obtained was used as a hepatic membrane sample. […] The mixture was incubated at 25° C. for 30 minutes. […] The filter was washed 3 times with 50 mM Tris-HCl buffer (pH 7.2), and the radioactivity of the filter was measured by a γ counter (ARC-360, Aloka Co., Ltd.). […] Each experiment was carried out in duplicate. […] The concentration at 50% inhibition of binding (IC50) was calculated using a pseudo Hill plot.

Data set [2] concerns the target glucagon receptor (Mus musculus, UniProt Q61606). The data set is described as follows: Experiment for glucagon binding inhibition, mouse hepatic membrane (125I-glucagon). The conditions noted are these: male ddY mouse hepatic membrane, 125I-glucagon 50 pM, 25° C. for 30 minutes; read-out: Glucagon binding inhibitory activity IC50 (nM) Mouse. The method, then: as §1

Chain of glucagon receptor (Rattus norvegicus, UniProt P30082) (P30082 27-485): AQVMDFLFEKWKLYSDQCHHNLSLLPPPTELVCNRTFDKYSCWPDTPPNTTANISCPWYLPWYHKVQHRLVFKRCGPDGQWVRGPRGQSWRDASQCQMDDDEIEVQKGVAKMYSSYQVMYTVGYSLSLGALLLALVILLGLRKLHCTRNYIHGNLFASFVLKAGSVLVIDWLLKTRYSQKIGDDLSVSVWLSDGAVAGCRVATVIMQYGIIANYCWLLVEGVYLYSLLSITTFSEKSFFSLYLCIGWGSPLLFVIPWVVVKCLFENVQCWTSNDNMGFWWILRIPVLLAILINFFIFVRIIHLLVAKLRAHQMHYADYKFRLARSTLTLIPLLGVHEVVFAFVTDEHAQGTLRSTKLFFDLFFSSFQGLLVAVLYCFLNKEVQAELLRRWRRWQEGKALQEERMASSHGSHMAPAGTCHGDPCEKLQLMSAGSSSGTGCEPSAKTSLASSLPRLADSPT
Chain of glucagon receptor (Mus musculus, UniProt Q61606) (Q61606 27-485): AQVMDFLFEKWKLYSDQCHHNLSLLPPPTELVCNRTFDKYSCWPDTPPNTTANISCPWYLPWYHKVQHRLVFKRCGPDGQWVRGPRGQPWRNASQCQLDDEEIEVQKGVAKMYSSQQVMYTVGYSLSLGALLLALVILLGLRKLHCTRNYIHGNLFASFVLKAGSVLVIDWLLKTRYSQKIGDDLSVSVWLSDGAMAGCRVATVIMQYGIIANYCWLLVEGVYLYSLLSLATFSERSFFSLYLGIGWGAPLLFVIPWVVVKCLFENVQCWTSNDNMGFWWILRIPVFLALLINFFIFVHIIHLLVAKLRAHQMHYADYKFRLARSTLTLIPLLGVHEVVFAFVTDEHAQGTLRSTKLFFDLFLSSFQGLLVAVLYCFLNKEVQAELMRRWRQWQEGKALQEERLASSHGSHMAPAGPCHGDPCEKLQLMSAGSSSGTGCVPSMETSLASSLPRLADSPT

`CC(=O)N(Cc1ccccc1)c1cccc(-c2ccoc2C(=O)NNC(=O)c2ccc(O)c(C#N)c2)c1`: the melting point fell in the range of 221 to 222 °C.
Consider `O=C(NNC(=O)c1occc1-c1ccc(OCc2ccccc2)cc1)c1ccc(O)c([N+](=O)[O-])c1` [Example 245], for which the melting point lay in the range of 163 to 164 °C. For the same compound, the half-maximal inhibitory concentration (IC50) at glucagon receptor [1] stood at 29 nM. Also, the IC50 on glucagon receptor [2] was 64 nM.
In the case of `CS(=O)(=O)c1ccc(COc2cccc(-c3ccoc3C(=O)NNC(=O)c3ccc(O)c(C#N)c3)c2)cc1` [Example 136, 3-[3-(4-methylsulfonylbenzyloxy)phenyl]-2-furancarboxylic acid 2-(3-cyano-4-hydroxybenzoyl)hydrazide], the melting point lay in the range of 235 to 237 °C. Moreover, the IC50 on glucagon receptor [1] was 96 nM. Also, the IC50 on glucagon receptor [2] was found to be 48 nM.
Regarding `O=C(NNC(=O)c1occc1-c1cccc(Cc2ccccc2)c1)c1ccc(O)c([N+](=O)[O-])c1` [Example 189, 3-(3-Benzylphenyl)-2-furancarboxylic acid 2-(4-hydroxy-3-nitrobenzoyl)hydrazide], the melting point was 160 to 162 °C. Further, the IC50 on glucagon receptor [1] turned out to be 5.5 nM. For the same compound, the IC50 at glucagon receptor [2] was 3 nM.
For the compound `CCOc1ccccc1Cc1cccc(-c2ccoc2C(=O)NNC(=O)c2ccc(O)c([N+](=O)[O-])c2)c1` [Example 226], the melting point was 87 to 89 °C. The IC50 at glucagon receptor [1] stood at 21 nM. Moreover, the IC50 on glucagon receptor [2] is 31 nM.
Turning to `CCCCOc1cccc(-c2ccoc2C(=O)NNC(=O)c2ccc(O)c([N+](=O)[O-])c2)c1` [Example 181, 3-(3-Butoxyphenyl)-2-furancarboxylic acid 2-(4-hydroxy-3-nitrobenzoyl)hydrazide], the melting point lay within 135 to 138 °C. Moreover, the IC50 on glucagon receptor [1] worked out at 30 nM. Besides, the IC50 on glucagon receptor [2] was determined as 62 nM.
`CC(C)COc1cccc(-c2ccoc2C(=O)NNC(=O)c2ccc(O)c([N+](=O)[O-])c2)c1` [Example 183, 3-(3-Isobutoxyphenyl)-2-furancarboxylic acid 2-(4-hydroxy-3-nitrobenzoyl)hydrazide] gave a melting point of 98 to 100 °C. Moreover, on glucagon receptor [1], the IC50 was found to be 51 nM. Further, the IC50 at glucagon receptor [2] turned out to be 34 nM.
The like results for `CC(C)c1ccc(-c2ccoc2C(=O)NNC(=O)c2ccc(O)c([N+](=O)[O-])c2)cc1` [Example 153, 3-(4-Isopropylphenyl)-2-furancarboxylic acid 2-(4-hydroxy-3-nitrobenzoyl)hydrazide] were, in that order, 194 to 196 °C, 24 nM and 18 nM.
In the case of `CCCCc1ccc(-c2ccoc2C(=O)NNC(=O)c2ccc(O)c([N+](=O)[O-])c2)cc1` [Example 142, 3-(4-butylphenyl)-2-furancarboxylic acid 2-(4-hydroxy-3-nitrobenzoyl)hydrazide], the melting point lay in the range of 190 to 193 °C. Besides, the IC50 at glucagon receptor [1] came to 5.5 nM. Also, on glucagon receptor [2], the IC50 amounted to 9.3 nM.
The like results for `O=C(NNC(=O)c1occc1-c1ccc2ccccc2c1)c1ccc(O)c([N+](=O)[O-])c1` [Example 217] were, in that order, 135 to 139 °C, 60 nM and 37 nM.
Regarding `CCCc1ccc(-c2ccoc2C(=O)NNC(=O)c2ccc(O)c([N+](=O)[O-])c2)cc1` [Example 160, 3-(4-Propylphenyl)-2-furancarboxylic acid 2-(4-hydroxy-3-nitrobenzoyl)hydrazide], the melting point lay in the range of 174 to 176 °C. The 50% inhibitory concentration (IC50) on glucagon receptor [1] was 2.9 nM. Further, at glucagon receptor [2], the IC50 stood at 3.4 nM.
On to `COc1c(Cl)cc(C(=O)NNC(=O)c2occ(-c3ccccc3)c2-c2ccccc2)cc1Cl`, for which the melting point fell in the range of 229 to 230 °C.
Compound `Cc1cc(C)c(C)c(COc2cccc(-c3coc(C(=O)NNC(=O)c4ccc(O)c([N+](=O)[O-])c4)c3-c3cccc(OCc4c(C)c(C)cc(C)c4C)c3)c2)c1C` yielded a melting point of 174 to 175 °C.
`O=C(NNC(=O)c1occc1-c1ccc2[nH]ccc2c1)c1ccc(O)c([N+](=O)[O-])c1` [Example 207] gave a melting point of 129 to 131 °C. Besides, on glucagon receptor [1], the IC50 was determined as 8 nM. Also, the IC50 on glucagon receptor [2] was determined as 9.5 nM.
With `Cc1ccc(-c2ccoc2C(=O)NNC(=O)c2ccc(O)c(C(F)(F)F)c2)cc1` [Example 240], the melting point was 120 to 123 °C. The IC50 at glucagon receptor [1] stood at 300 nM. Also, on glucagon receptor [2], the IC50 worked out at 180 nM.
The corresponding values for `CC(C)CCOc1cccc(-c2ccoc2C(=O)NNC(=O)c2ccc(O)c([N+](=O)[O-])c2)c1` [Example 180, 3-(3-Isopentyloxyphenyl)-2-furancarboxylic acid 2-(4-hydroxy-3-nitrobenzoyl)hydrazide] are 122 to 124 °C, 84 nM and 46 nM.
Turning to `Cc1cc(C)cc(COc2cccc(-c3ccoc3C(=O)NNC(=O)c3ccc(O)c([N+](=O)[O-])c3)c2)c1` [Example 223], the melting point was in the range of 178 to 180 °C. Moreover, the IC50 on glucagon receptor [1] turned out to be 12 nM. Also, the half-maximal inhibitory concentration (IC50) on glucagon receptor [2] came out at 26 nM.
On to `Cc1ccccc1COc1cccc(-c2ccoc2C(=O)NNC(=O)c2ccc(O)c(C#N)c2)c1`, for which the melting point lay within 178 to 180 °C.
In turn, `O=C(NNC(=O)c1occc1-c1ccccc1)c1ccc(O)c(C(=O)O)c1` came in with a melting point of 250 to 251 °C.
In turn, `CC(C)(C)OC(=O)c1cc(C(=O)NNC(=O)c2occc2-c2ccccc2)ccc1O` yielded a melting point of 147 to 154 °C.
In turn, `O=C(NNC(=O)c1occ(-c2ccccc2)c1-c1ccccc1)c1ccc(O)c(Cl)c1` came in with a melting point of 197 to 199 °C.
For `O=C(NNC(=O)c1occc1-c1ccncc1)c1ccc(O)c([N+](=O)[O-])c1`, the melting point stood at 237 °C.
The compound `O=C(NNC(=O)c1occ(-c2ccccc2)c1-c1ccccc1)c1cc(Cl)c(O)c(Cl)c1` showed a melting point of 261 to 263 °C.
Take `N#Cc1cc(C(=O)NNC(=O)c2occc2-c2cccc(NC(=O)OCc3ccccc3)c2)ccc1O`: the melting point lay in the range of 179 to 181 °C.
Regarding `O=C(NNC(=O)c1occ(-c2ccccc2)c1-c1ccccc1)c1ccccn1`, the melting point fell in the range of 190 to 192 °C.
Same read-out and setting: the same measure for `O=C(NNC(=O)c1occ(-c2ccccc2)c1-c1ccccc1)c1ccncc1`: 115 to 120 °C.
Regarding `COc1ccc(C(=O)NNC(=O)c2occ(-c3ccccc3)c2-c2ccccc2)cc1Cl`, the melting point lay in the range of 203 to 207 °C.
Same read-out and setting: the same measure for `CS(=O)(=O)Oc1cccc(-c2ccoc2C(=O)NNC(=O)c2ccc(O)c([N+](=O)[O-])c2)c1`: 170 to 171 °C; for `CCc1coc(C(=O)NNC(=O)c2ccc(O)c(C#N)c2)c1-c1ccccc1`: 186 to 188 °C; for `COc1ccc(C(=O)NNC(=O)c2occ(-c3ccccc3)c2-c2ccccc2)cc1C#N`: 220 to 225 °C.
For the compound `O=C(NNC(=O)c1occ(-c2ccccc2)c1-c1ccccc1)c1ccc(O)c(-c2ccccc2)c1`, the melting point is 217 to 218 °C.
The compound `COc1ccc(C(=O)NNC(=O)c2occ(-c3ccccc3)c2-c2ccccc2)c(OC)c1` yielded a melting point of 240 to 242 °C.
`O=C(NNC(=O)c1occ(-c2ccccc2)c1-c1ccccc1)c1cccs1`: the melting point lay within 132 to 135 °C.
In turn, `O=C(NNC(=O)c1occ(-c2ccccc2)c1-c1ccccc1)c1ccc(O)cc1O` returned a melting point of 285 to 288 °C.
Consider `N#Cc1cc(C(=O)NNC(=O)c2occ(COC(=O)Nc3ccccc3)c2-c2ccccc2)ccc1O` [Example 53, 4-(phenylaminocarbonyloxymethyl)-3-phenyl-2-furancarboxylic acid 2-(3-cyano-4-hydroxybenzoyl)hydrazide], for which the IC50 amounted to 75 nM at glucagon receptor [1] and 240 nM on glucagon receptor [2].
`CCc1c(-c2ccccc2)coc1C(=O)NNC(=O)c1ccc(O)c(C#N)c1` returned a melting point of 190 to 192 °C.
In the case of `C=Cc1coc(C(=O)NNC(=O)c2ccc(O)c(C#N)c2)c1-c1ccccc1`, the melting point was in the range of 175 to 177 °C.
The compound `COc1ccc(C(=O)NNC(=O)c2occ(-c3ccccc3)c2-c2ccccc2)cc1OC` showed a melting point of 181 to 184 °C.
Turning to `N#Cc1cc(C(=O)NNC(=O)c2occc2-c2cccc(OCc3ccccc3)c2)ccc1O` [Example 3, 3-(3-benzyloxyphenyl)-2-furancarboxylic acid 2-(3-cyano-4-hydroxybenzoyl)hydrazide], the figures for the IC50 at glucagon receptor [1] and at glucagon receptor [2] were 30 nM and 52 nM, respectively.
The compound `Cc1ccc(-c2ccoc2C(=O)NNC(=O)c2ccc(O)c(Cl)c2)cc1` returned a melting point of 240 to 242 °C.
Compound `O=C(NNC(=O)c1occ(-c2ccccc2)c1-c1ccccc1)c1ccc(O)c(O)c1` registered a melting point of 242 to 244 °C.
As to `N#Cc1cc(C(=O)NNC(=O)c2occc2-c2cccs2)ccc1O` [Example 60, 3-(2-thienyl)-2-furancarboxylic acid 2-(3-cyano-4-hydroxybenzoyl)hydrazide], the IC50 at glucagon receptor [1] was determined as 120 nM; on glucagon receptor [2], 160 nM.
Regarding `Cc1cc(C)c(C)c(COc2cccc(-c3coc(C(=O)NNC(=O)c4ccc(O)c(C#N)c4)c3-c3ccccc3)c2)c1C` [Example 99, 3-phenyl-4-[3-(2,3,5,6-tetramethylbenzyloxy)phenyl]-2-furancarboxylic acid 2-(3-cyano-4-hydroxybenzoyl)hydrazide], the figures for the IC50 at glucagon receptor [1] and on glucagon receptor [2] were 3.4 nM and 13 nM, respectively.
`COc1ccc(C(=O)NNC(=O)c2occ(-c3ccccc3)c2-c2ccccc2)cc1[N+](=O)[O-]` displayed a melting point of 150 to 158 °C.

As a reminder, the melting point is the temperature of the solid-liquid transition. As a reminder, the IC50 is the concentration at which inhibition is half-maximal.
